A word on the melting point: it is the temperature, or range, at which the solid turns liquid. Take `COc1nc(N2CCN(C(=O)c3ccccc3C(F)(F)F)CC2)ccc1C(=O)NCCC1CC1` [Example 7, N-(2-cyclopropylethyl)-2-methoxy-6-(4-(2-trifluoromethylbenzoyl)piperazin-1-yl]nicotinamide]: the melting point lay in the range of 49 to 51 °C.

Values taken from patent publication US20050119251A1, “Nicotinamide derivatives and their use as therapeutic agents” (priority 2001, published 2005).
